{"source": "patent US20260262643A1", "about": "“HERBICIDAL BENZOXAZINES” (FMC CORPORATION, priority 2022, published 2026)", "key": {"kochia [1]": {"tested_on": "kochia", "assay": "Test C postemergence", "assay_type": "in vivo, Bassia scoparia", "conditions": "10 days", "method_in_brief": "(§1)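 Pre: seeds in loam/sand, directed soil spray. Post: 1–2 leaf plants, 2–10 cm. Cmpd in non-phytotoxic solvent + surfactant. Greenhouse 10 d; visual rating vs untreated, 0 = none, 100 = complete control.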"}, "blackgrass [2]": {"tested_on": "blackgrass", "assay": "Test C postemergence", "assay_type": "in vivo, Alopecurus myosuroides", "conditions": "Postemergence, 500 g ai/ha, 10 days, visual 0 to 100 scale (0 no effect, 100 complete control)", "method_in_brief": "as §1"}, "corn [3]": {"tested_on": "corn", "assay": "Test C postemergence", "assay_type": "in vivo, Zea mays", "conditions": "10 days", "method_in_brief": "as §1"}, "barnyardgrass [4]": {"tested_on": "barnyardgrass", "assay": "Test C postemergence", "assay_type": "in vivo, Echinochloa crusgalli", "conditions": "10 days", "method_in_brief": "as §1"}, "barnyardgrass [5]": {"tested_on": "barnyardgrass", "assay": "Test D flooded paddy test", "assay_type": "in vivo, Echinochloa crus-galli", "conditions": "250 g ai/ha, applied to paddy water, visual rating after 13 to 14 days, scale 0 to 100 (0 no effect, 100 complete control)", "method_in_brief": "(§2)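 Plants at the 2-leaf stage were grown in pots flooded to 3 cm, and compound was applied directly into the paddy water, with depth kept throughout. After 13–14 days in a greenhouse, injury was rated visually against untreated controls on a 0–100 scale (100 = complete control); a dash means not tested.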"}, "kochia [6]": {"tested_on": "kochia", "assay": "Test C preemergence", "assay_type": "in vivo, Bassia scoparia", "conditions": "0 to 100 scale (0 no effect, 100 complete control)", "method_in_brief": "as §1"}, "ryegrass, Italian [7]": {"tested_on": "ryegrass, Italian", "assay": "Test C postemergence", "assay_type": "in vivo, Lolium multiflorum", "conditions": "10 days", "method_in_brief": "as §1"}, "pigweed, palmer [8]": {"tested_on": "pigweed, palmer", "assay": "Test C postemergence", "assay_type": "in vivo, Amaranthus palmeri", "conditions": "10 days", "method_in_brief": "as §1"}, "barnyardgrass [9]": {"tested_on": "barnyardgrass", "assay": "Test C preemergence", "assay_type": "in vivo, Echinochloa crusgalli", "conditions": "0 to 100 scale (0 no effect, 100 complete control)", "method_in_brief": "as §1"}, "green foxtail [10]": {"tested_on": "green foxtail", "assay": "Test C preemergence", "assay_type": "in vivo, Setaria viridis", "conditions": "0 to 100 scale (0 no effect, 100 complete control)", "method_in_brief": "as §1"}, "soybean [11]": {"tested_on": "soybean", "assay": "Test C preemergence", "assay_type": "in vivo, Glycine max", "conditions": "0 to 100 scale (0 no effect, 100 complete control)", "method_in_brief": "as §1"}, "wheat [12]": {"tested_on": "wheat", "assay": "Test C preemergence", "assay_type": "in vivo, Triticum aestivum", "conditions": "0 to 100 scale (0 no effect, 100 complete control)", "method_in_brief": "as §1"}, "rice": {"tested_on": "rice", "assay": "Test D flooded paddy test", "assay_type": "in vivo, Oryza sativa", "conditions": "250 g ai/ha, applied to paddy water, visual rating after 13 to 14 days, scale 0 to 100 (0 no effect, 100 complete control)", "method_in_brief": "as §2"}, "ragweed [13]": {"tested_on": "ragweed", "assay": "Test C preemergence", "assay_type": "in vivo, Ambrosia artemisiifolia", "conditions": "0 to 100 scale (0 no effect, 100 complete control)", "method_in_brief": "as §1"}, "oat, wild [14]": {"tested_on": "oat, wild", "assay": "Test C preemergence", "assay_type": "in vivo, Avena fatua", "conditions": "0 to 100 scale (0 no effect, 100 complete control)", "method_in_brief": "as §1"}, "corn [15]": {"tested_on": "corn", "assay": "Test C preemergence", "assay_type": "in vivo, Zea mays", "conditions": "0 to 100 scale (0 no effect, 100 complete control)", "method_in_brief": "as §1"}, "wheat [16]": {"tested_on": "wheat", "assay": "Test C postemergence", "assay_type": "in vivo, Triticum aestivum", "conditions": "10 days", "method_in_brief": "as §1"}, "sedge, umbrella": {"tested_on": "sedge, umbrella", "assay": "Test D flooded paddy test", "assay_type": "in vivo, Cyperus difformis", "conditions": "250 g ai/ha, applied to paddy water, visual rating after 13 to 14 days, scale 0 to 100 (0 no effect, 100 complete control)", "method_in_brief": "as §2"}, "pigweed, palmer [17]": {"tested_on": "pigweed, palmer", "assay": "Test C preemergence", "assay_type": "in vivo, Amaranthus palmeri", "conditions": "0 to 100 scale (0 no effect, 100 complete control)", "method_in_brief": "as §1"}, "galium": {"tested_on": "galium", "assay": "Test C postemergence", "assay_type": "in vivo, Galium aparine", "conditions": "10 days", "method_in_brief": "as §1"}, "oat, wild [18]": {"tested_on": "oat, wild", "assay": "Test C postemergence", "assay_type": "in vivo, Avena fatua", "conditions": "10 days", "method_in_brief": "as §1"}, "ducksalad": {"tested_on": "ducksalad", "assay": "Test D flooded paddy test", "assay_type": "in vivo, Heteranthera limosa", "conditions": "250 g ai/ha, applied to paddy water, visual rating after 13 to 14 days, scale 0 to 100 (0 no effect, 100 complete control)", "method_in_brief": "as §2"}, "green foxtail [19]": {"tested_on": "green foxtail", "assay": "Test C postemergence", "assay_type": "in vivo, Setaria viridis", "conditions": "10 days", "method_in_brief": "as §1"}, "horseweed": {"tested_on": "horseweed", "assay": "Test C postemergence", "assay_type": "in vivo, Erigeron canadensis", "conditions": "10 days", "method_in_brief": "as §1"}, "blackgrass [20]": {"tested_on": "blackgrass", "assay": "Test C preemergence", "assay_type": "in vivo, Alopecurus myosuroides", "conditions": "0 to 100 scale (0 no effect, 100 complete control)", "method_in_brief": "as §1"}, "ryegrass, Italian [21]": {"tested_on": "ryegrass, Italian", "assay": "Test C preemergence", "assay_type": "in vivo, Lolium multiflorum", "conditions": "0 to 100 scale (0 no effect, 100 complete control)", "method_in_brief": "as §1"}, "soybean [22]": {"tested_on": "soybean", "assay": "Test C postemergence", "assay_type": "in vivo, Glycine max", "conditions": "10 days", "method_in_brief": "as §1"}, "ragweed [23]": {"tested_on": "ragweed", "assay": "Test C postemergence", "assay_type": "in vivo, Ambrosia artemisiifolia", "conditions": "10 days", "method_in_brief": "as §1"}, "[24]": {"conditions": "125 g ai/ha, postemergence, 0 to 100 scale, 0 no effect, 100 complete control"}, "[25]": {"conditions": "Postemergence, 500 g ai/ha, visual 0 to 100 scale (0 no effect, 100 complete control)"}, "[26]": {"conditions": "Preemergence, 500 g ai/ha, visual rating after 10 days"}, "[27]": {"conditions": "Test C, preemergence, 125 g ai/ha"}}}
{"smiles": "CC(C)=C(C)c1ncn(-c2cccc(C(=O)N3C[C@H](C)Oc4c(C)cccc43)c2)n1", "note": "[Compound 262]", "values": [{"measurement": "Plant response rating, Kochia", "setting": "kochia [1]; [24]", "value": 50}, {"measurement": "Plant response rating, Kochia", "setting": "kochia [1]; [25]", "value": 90}, {"measurement": "Plant response rating, Blackgrass", "setting": "blackgrass [2]", "value": 90}, {"measurement": "Plant response rating, Corn", "setting": "corn [3]; [24]", "value": 60}, {"measurement": "Plant response rating, Corn", "setting": "corn [3]; [25]", "value": 80}, {"measurement": "Plant response rating, Barnyardgrass", "setting": "barnyardgrass [4]; [24]", "value": 60}, {"measurement": "Plant response rating, Barnyardgrass", "setting": "barnyardgrass [4]; [25]", "value": 90}, {"measurement": "Plant response rating, Barnyardgrass (Flood)", "setting": "barnyardgrass [5]", "value": 0}, {"measurement": "Plant response rating, Kochia", "setting": "kochia [6]; [26]", "value": 80}, {"measurement": "Kochia plant response rating", "setting": "kochia [6]; [27]", "value": 40}, {"measurement": "Plant response rating, Ryegrass, Italian", "setting": "ryegrass, Italian [7]; [24]", "value": 80}, {"measurement": "Plant response rating, Ryegrass, Italian", "setting": "ryegrass, Italian [7]; [25]", "value": 90}, {"measurement": "Plant response rating, Pigweed, Palmer", "setting": "pigweed, palmer [8]; [24]", "value": 70}, {"measurement": "Plant response rating, Pigweed, Palmer", "setting": "pigweed, palmer [8]; [25]", "value": 90}, {"measurement": "Plant response rating, Barnyardgrass", "setting": "barnyardgrass [9]; [26]", "value": 90}, {"measurement": "Barnyardgrass plant response rating", "setting": "barnyardgrass [9]; [27]", "value": 60}, {"measurement": "Plant response rating, Foxtail, Green", "setting": "green foxtail [10]; [26]", "value": 100}, {"measurement": "Foxtail, Green plant response rating", "setting": "green foxtail [10]; [27]", "value": 100}, {"measurement": "Plant response rating, Soybean", "setting": "soybean [11]; [26]", "value": 70}, {"measurement": "Soybean plant response rating", "setting": "soybean [11]; [27]", "value": 30}, {"measurement": "Plant response rating, Wheat", "setting": "wheat [12]; [26]", "value": 70}, {"measurement": "Wheat plant response rating", "setting": "wheat [12]; [27]", "value": 20}, {"measurement": "Plant response rating, Rice (Flood)", "setting": "rice", "value": 0}, {"measurement": "Plant response rating, Ragweed", "setting": "ragweed [13]; [26]", "value": 60}, {"measurement": "Ragweed plant response rating", "setting": "ragweed [13]; [27]", "value": 0}, {"measurement": "Plant response rating, Oat, Wild", "setting": "oat, wild [14]; [26]", "value": 80}, {"measurement": "Oat, Wild plant response rating", "setting": "oat, wild [14]; [27]", "value": 50}, {"measurement": "Plant response rating, Corn", "setting": "corn [15]; [26]", "value": 40}, {"measurement": "Corn plant response rating", "setting": "corn [15]; [27]", "value": 40}, {"measurement": "Plant response rating, Wheat", "setting": "wheat [16]; [24]", "value": 30}, {"measurement": "Plant response rating, Wheat", "setting": "wheat [16]; [25]", "value": 50}, {"measurement": "Plant response rating, Sedge, Umbrella (Flood)", "setting": "sedge, umbrella", "value": 0}, {"measurement": "Plant response rating, Pigweed, Palmer", "setting": "pigweed, palmer [17]; [26]", "value": 90}, {"measurement": "Pigweed, Palmer plant response rating", "setting": "pigweed, palmer [17]; [27]", "value": 70}, {"measurement": "Plant response rating, Galium", "setting": "galium; [24]", "value": 100}, {"measurement": "Plant response rating, Galium", "setting": "galium; [25]", "value": 100}, {"measurement": "Plant response rating, Oat, Wild", "setting": "oat, wild [18]; [24]", "value": 60}, {"measurement": "Plant response rating, Oat, Wild", "setting": "oat, wild [18]; [25]", "value": 80}, {"measurement": "Plant response rating, Ducksalad (Flood)", "setting": "ducksalad", "value": 0}, {"measurement": "Plant response rating, Foxtail, Green", "setting": "green foxtail [19]; [24]", "value": 70}, {"measurement": "Plant response rating, Foxtail, Green", "setting": "green foxtail [19]; [25]", "value": 90}, {"measurement": "Plant response rating, Horseweed", "setting": "horseweed; [24]", "value": 10}, {"measurement": "Plant response rating, Horseweed", "setting": "horseweed; [25]", "value": 10}, {"measurement": "Plant response rating, Blackgrass", "setting": "blackgrass [20]; [26]", "value": 90}, {"measurement": "Blackgrass plant response rating", "setting": "blackgrass [20]; [27]", "value": 60}, {"measurement": "Plant response rating, Ryegrass, Italian", "setting": "ryegrass, Italian [21]; [26]", "value": 90}, {"measurement": "Ryegrass, Italian plant response rating", "setting": "ryegrass, Italian [21]; [27]", "value": 70}, {"measurement": "Plant response rating, Soybean", "setting": "soybean [22]; [24]", "value": 100}, {"measurement": "Plant response rating, Soybean", "setting": "soybean [22]; [25]", "value": 100}, {"measurement": "Plant response rating, Ragweed", "setting": "ragweed [23]; [24]", "value": 40}, {"measurement": "Plant response rating, Ragweed", "setting": "ragweed [23]; [25]", "value": 70}]}
